Source: patent US7094770B2, “3′-or 2′-hydroxymethyl substituted nucleoside derivatives for treatment of hepatitis virus infections” (Pharmasset, Ltd., priority 2000, dated 2006)
Read-outs that look alike come from different tables or passages of the source.

Tests used:
HIV = details: literature; cited from earlier work
HBV = test: Cell culture assay for anti-HBV activity (2.2.15 cells, HBV DNA in medium by Southern blot); type: cell-based, Hepatitis B virus; details: for EC50: read-out: Anti-HBV EC50; for Antiviral activity (in words): virus not named
Description: We follow the protocol described by Korba and Gerin(Antiviral Res., 1992, 19:55) and Pai et al. (Antimicrobial Agents Chemother., 1996, 40:380) which is used widely in the field. The HepG 2 2.2.15 cells contain a stably integrated HBV genome, the transcript from which serves as a template for viral replication. The cells produce virions which are elaborated into the medium. The production of the virion DNA is monitored by analysis of medium by Southern blotting. Drugs which inhibit viral replication reduce the levels of virion DNA in the medium, relative to controls.
Confluent cells in 24 well tissue culture dishes are treated with test compounds starting at 1 nM and extending logarithmically to 10 μM (1 nM, 3.2, 10 nM, 32, 100 nM, 1 μM, 10 μM […]). Medium is changed […] every 3 days and DNA extracted from the 3, 6, and […] day samples. The virions are concentrated by polyethylene glycol precipitation (equal volume addition of PEG 8000). After cooling on ice the samples are spun and the pellets treated with SDS and Proteinase K followed by Phenol:Chloroform extraction and ethanol precipitation of the DNA. The DNA is analyzed for HBV sequences by Southern hybridization. The probe used for the analysis is a ^32P labeled Eco RI fragment from the HBV clone described by Korba et al. 3TC is used as a positive control compound with known activity against HBV.
System: The most widely used system for the study of anti-HBV agents is the hepatoma cell culture system with the HBV genome. These cells are designated as the 2.2.15 cells, AD38 cells and AD79 cells. The 2.2.15 cells were generated by the transfection of the human hepatoma cells—HepG2 with HBV DNA. (Sells, et al., Proc. Natl. Acad. Sci. USA 84:1005–1009, 1987) HBV viral replication takes place in these cells. The HBV replication can be monitored intracellularly as well as extracellularly in these cells.
Assay for Anti-HBV agents: 2.215 cells are grown in multi-well dishes in RPMI medium supplemented with 4% fetal bovine serum. After 3 to 4 days of growing the cells, they are treated with varying concentrations of the test compound(s). The test compounds are dissolved in DMSO or sterile water. Cultures without the addition of the test compounds serve as controls. The addition of the test compound(s) is repeated at 3-day intervals. The medium is changed and replaced with appropriate concentration of the test compound. At the end of the 9-day treatment period, the culture medium is harvested and processed for viral DNA. The viral DNA thus obtained is analyzed by Southern blot analysis. After the Southern transfer, the blot is subjected to hybridization to an HBV specific probe to detect HBV DNA. The hybriodization is carried out overnight. After the hybridization, free probe is removed by washing of the blots. The specific hybridization is visualized by autoradiography. Inhibition produced by the test compound is calculated with reference to the levels of HBV DNA in the control samples.

HIV-1 = test: Anti-HIV evaluation in human PBM cells; type: cell-based; details: for EC50: HIV-1
Description: (§1) Human PBM cells from healthy donors, seronegative for HIV-1 and HBV, are isolated by a single-step Ficoll-Hypaque discontinuous gradient centrifugation and propagated as described previously (Schinazi et al., Antimicrobial Agents Chemother., 1990, 34:1061; 1992, 36:2423; 1993, 37:875). Compounds are screened for activity against HIV-1 and cytotoxicity by a protocol reported previously reported by Schinazi, et al. The prototype strain of HIV-1LAI obtained from the Centers for Disease Control and Prevention, Atlanta, Ga., is used as the standard virus for the studies in human PBM cells.

[1] = Cytotoxicity in PBM cells; type: cell-based, human; details: human
Experimental: (§2) We also perform toxicity assays by measuring the inhibition of uptake of […] dye by treated cells. These assays are done in 96 well plates. After the standard 10 day treatment regimen medium is removed and PBS containing MTS dye added to each well. After a 2 hour incubation the absorbance of the metabolized product is measured at 490 nm.
as §1

[2] = Cytotoxicity in Vero cells; type: cell-based; details: African green monkey
Experimental: as §2

[3] = Cytotoxicity in CEM cells; type: cell-based; details: human
Experimental: as §2

[4] = Cytotoxicity in HepG2 cells; type: cell-based; details: human
Experimental: as §2

PBM cells = test: Cytotoxicity in PBM cells; type: cell-based, human
Experimental: as §2, §1

[5] = Human immunodeficiency virus 1, PBMC

SMILES | Activity against HIV (in words) (HIV) | EC50 (HBV; Hepatitis B virus) [µM] | EC50 (HIV-1; [5]) [µM] | IC50 [1] [µM] | IC50 at 10 day [2] [µM] | IC50 at 10 day [3] [µM] | Inhibition of HBV replication (in words) (HBV) | Inhibition of HIV replication (in words) (HIV-1) | IC50 at 10 day [4] [µM] | EC50 (HBV) [µM] | Antiviral activity (in words) (HBV) | EC50 (HIV-1) [µM] | IC50 (PBM cells) [µM]
Nc1ncnc2c1ncn2[C@H]1C[C@H](CO)[C@@H](CO)O1 [2′,3′-dideoxy-3′-hydroxymethyl-adenosine] | good activity |  |  |  |  |  |  |  |  |  |  |  | 
Cc1cn(C2CC3COCC3O2)c(=O)[nH]c1=O (centres unmarked) [Compound 1 (Series 1)] |  | > 10 | > 100 | > 100 | > 100 |  |  |  |  |  |  |  | 
Cc1cn(C2OC(CO)C(CO)C2F)c(=O)[nH]c1=O (centres unmarked) [Compound 1 (Series 2)] |  | > 10 | > 100 | > 100 |  |  |  |  |  |  |  |  | 
Cc1cn(C2OC(CO)C(CO)C2F)c(=O)nc1N (centres unmarked) [Compound 2 (Series 2)] |  | > 10 | > 100 | > 100 | > 100 |  |  |  |  |  |  |  | 
Cc1cn(C2CC(CCl)C(CO)O2)c(=O)[nH]c1=O (centres unmarked) [Compound 3 (Series 1)] |  | > 10 | > 100 | > 100 | > 100 |  |  |  |  |  |  |  | 
Cc1cn(C2CC(CI)C(CO)O2)c(=O)[nH]c1=O (centres unmarked) [Compound 5 (Series 1)] |  | > 10 | > 100 | > 100 | > 100 |  |  |  |  |  |  |  | 
CC1=CC(C2CC(CO)N(C)O2)C(=O)NC1=O (centres unmarked) [Compound 5 (Series 2)] |  | > 10 | > 100 | > 100 |  |  |  |  |  |  |  |  | 
Cc1cn(C2CC(CO)N(C)O2)c(=O)[nH]c1=O (centres unmarked) [Compound 6 (Series 2)] |  | > 10 | > 100 | > 100 | > 100 | > 100 |  |  |  |  |  |  | 
Nc1ccn(C2OC(CO)C(CO)C2F)c(=O)n1 (centres unmarked) [Compound 7 (Series 2)] |  | 0.04 | 2.6 | 48.8 | 56 | 5.1 | potent inhibitors | potent inhibitors | > 100 |  |  |  | 
Nc1nc(=O)n(C2OC(CO)C(CO)C2F)cc1F (centres unmarked) [Compound 10 (Series 2)] |  | 0.13 | 3.3 | > 100 | > 100 | > 100 | potent inhibitors | potent inhibitors | > 100 |  |  |  | 
Cc1cn(C2OC(CO)C(CO)C2F)c(=O)[nH]c1=O (centres unmarked) [Compound 12 (Series 2)] |  |  |  |  | > 100 | > 100 |  |  |  | < 10 | moderate activities | > 100 | > 100
O=c1ccn(C2OC(CO)C(CO)C2F)c(=O)[nH]1 (centres unmarked) [Compound 13 (Series 2)] |  | > 10 | > 100 | > 100 | > 100 | > 100 |  |  |  |  |  |  | 
Cc1cn(C2CC(CO)C(CO)O2)c(=O)[nH]c1=O (centres unmarked) [Compound 20 (Series 1)] |  |  |  | > 100 | > 100 | > 100 |  |  |  | 0.23 | moderate activity | 0.8 | 
CC1C(CO)OC(n2ccc(N)nc2=O)C1F (centres unmarked) [Compound 20 (Series 2)] |  | > 10 | > 100 | > 100 | > 100 | > 100 | potent inhibitors | potent inhibitors |  |  |  |  | 
